Test results published in the supplement of paper PMC10307832.

Compound: CC[C@H](CO)Nc1nc(NCc2ccccc2)c2ncn(C(C)C)c2n1 [Seliciclib]
Assay: relative viability (nuclei count vs DMSO), 5 days (fraction); higher = more cells survive
Summary of the method: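 Hoechst staining, done together with fixation and permeabilisation, marked nuclei for 4× imaging and MetaXpress counting. This followed 5 days without medium change after lung cancer cell lines, kept overnight at 37 °C in 1536-well plates, were pinned with five library-drug doses (not always all listed) spaced by √10 on vehicle-anchored plates. Viability is the ratio of treated-well to vehicle-well nuclei, expressed as a median across plates. Plates passed only at control CV below 25% with at least one doubling.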

Cell Line | relative viability (0.08 µM) | relative viability (0.253 µM) | relative viability (0.8 µM) | relative viability (2.53 µM) | relative viability (8 µM)
201T | 0.982 | 1.06 | 0.959 | 0.845 | 0.883
A549 | 0.914 | 0.985 | 0.931 | 0.906 | 0.81
A-427 | 1.03 | 1.02 | 1.02 | 0.883 | 0.967
ABC-1 | 0.995 | 1.12 | 1 | 0.615 | 0.582
BEN | 1.04 | 0.82 | 1.03 | 0.907 | 0.817
CAL-12T | 0.986 | 1.11 | 0.922 | 0.934 | 0.641
COR-L23 | 1.02 | 1.15 | 1.06 | 1.01 | 0.821
COR-L 105 | 0.932 | 1.14 | 0.924 | 0.851 | 0.902
Calu-6 | 0.991 | 1.13 | 1.01 | 1.01 | 0.891
ChaGo-K-1 | 1.05 | 0.995 | 0.923 | 0.935 | 0.912
EBC-1 | 0.945 | 0.84 | 1.06 | 0.985 | 0.663
EKVX | 0.946 | 1.03 | 0.862 | 0.923 | 0.844
EMC-BAC-2 | 0.978 | 0.894 | 1.03 | 0.654 | 0.811
EPLC-272H | 0.982 | 0.876 | 0.863 | 0.863 | 0.844
H3255 | 1.07 | 0.94 | 1.08 | 0.965 | 0.888
HARA | 0.927 | 1.08 | 1.01 | 0.945 | 0.844
HCC-15 | 1.04 | 1.06 | 0.925 | 0.926 | 0.764
HCC-44 | 1 | 1.05 | 1.01 | 0.931 | 0.899
HCC-78 | 1 | 1.05 | 0.91 | 0.703 | 0.733
HCC-366 | 1.01 | 1.06 | 0.998 | 1.03 | 0.938
HCC-827 | 1.04 | 1.07 | 1.01 | 1.05 | 0.907
HOP-62 | 1.04 | 1.1 | 1.08 | 1 | 0.94
IA-LM | 1.01 | 1.1 | 0.919 | 1 | 0.819
LC-2-ad | 1 | 1.14 | 0.973 | 0.846 | 0.888
LCLC-97TM1 | 0.984 | 1 | 0.911 | 0.473 | 0.651
LCLC-103H | 1 | 0.934 | 0.929 | 0.836 | 0.914
LK-2 | 0.99 | 0.737 | 0.966 | 0.759 | 0.69

Cell Line | relative viability (0.08 µM) | relative viability (0.253 µM) | relative viability (0.8 µM) | relative viability (2.53 µM) | relative viability (8 µM)
LOU-NH91 | 0.789 | 0.916 | 0.919 | 0.85 | 0.723
LU99A | 0.962 | 0.836 | 0.953 | 0.69 | 0.775
LXF-289 | 0.983 | 1.2 | 0.972 | 1.02 | 0.91
NCI-H23 | 1.01 | 0.81 | 0.991 | 0.449 | 0.565
NCI-H322M | 0.932 | 1.09 | 0.798 | 0.799 | 0.753
NCI-H358 | 0.932 | 0.922 | 0.785 | 0.621 | 0.633
NCI-H441 | 1.07 | 1.01 | 1.06 | 0.783 | 0.566
NCI-H460 | 0.952 | 1.13 | 0.996 | 1.04 | 0.889
NCI-H520 | 0.918 | – | 0.968 | 1.12 | 0.843
NCI-H522 | 0.944 | 0.94 | 1.05 | 0.847 | 0.727
NCI-H596 | 1.01 | – | 0.948 | 0.991 | 0.872
NCI-H647 | 0.971 | 0.836 | 1.03 | 0.939 | 0.754
NCI-H650 | 0.942 | 0.892 | 1.24 | 0.591 | 0.831
NCI-H661 | 0.964 | 1.02 | 0.966 | 0.916 | 0.756
NCI-H727 | 0.85 | 0.891 | 0.8 | 0.796 | 0.75
NCI-H838 | 0.945 | 0.956 | 0.944 | 0.926 | 0.805
NCI-H1299 | 0.959 | 1.12 | 1.03 | 1.02 | 1.03
NCI-H1355 | 0.977 | 0.959 | 0.89 | 0.905 | 0.959
NCI-H1395 | 0.978 | 0.725 | 0.857 | 0.789 | 0.94
NCI-H1437 | 0.965 | 1.12 | 0.968 | 0.95 | 0.872
NCI-H1563 | 1.03 | 0.872 | 1.06 | 0.833 | 0.897
NCI-H1648 | 0.922 | 1.11 | 1.18 | 0.721 | 0.704
NCI-H1650 | 0.926 | 1.1 | 0.95 | 0.824 | 0.663
NCI-H1651 | 1.01 | 0.974 | 0.958 | 0.895 | 0.906
NCI-H1666 | 0.955 | 1.13 | 1.01 | 0.866 | 0.829
NCI-H1703 | 0.947 | 0.905 | 1.04 | 0.951 | 0.965
NCI-H1734 | 1.02 | 0.802 | 1.04 | 0.812 | 0.741

Cell Line | relative viability (0.08 µM) | relative viability (0.253 µM) | relative viability (0.8 µM) | relative viability (2.53 µM) | relative viability (8 µM)
NCI-H1755 | 1.01 | 0.995 | 0.951 | 0.99 | 0.989
NCI-H1792 | 0.938 | 0.939 | 0.944 | – | 0.791
NCI-H1793 | 0.86 | 0.771 | 0.785 | 0.859 | 0.764
NCI-H1915 | 0.982 | 1.02 | 0.956 | 0.933 | 0.856
NCI-H1944 | 0.983 | 0.947 | 0.898 | 0.73 | 0.707
NCI-H1975 | 0.949 | 0.822 | 0.993 | 0.8 | 0.843
NCI-H1993 | 0.979 | 0.761 | 0.884 | 0.723 | 0.633
NCI-H2009 | 1.03 | 1.16 | 1.03 | 0.996 | 0.994
NCI-H2023 | 0.989 | 0.956 | 0.964 | 0.857 | 0.725
NCI-H2085 | 1.01 | 1.04 | 1.01 | 0.961 | 0.873
NCI-H2087 | 1.03 | 1.08 | 0.956 | 0.836 | 0.791
NCI-H2126 | 0.965 | 0.931 | 0.961 | 0.663 | 0.829
NCI-H2170 | 0.93 | 0.697 | 0.897 | 0.997 | 0.946
NCI-H2228 | 0.974 | 0.88 | 1.01 | 0.923 | 0.753
NCI-H2342 | 0.967 | 0.74 | 0.947 | 0.842 | 0.905
NCI-H2347 | 0.982 | 1.08 | 0.936 | 0.994 | 0.95
NCI-H2405 | 0.919 | 1.02 | 0.976 | 0.804 | 0.872
NCI-H3122 | 0.994 | 0.947 | 0.883 | 0.983 | 0.894
PC-3 [JPC-3] | 1.03 | 1.08 | 0.994 | 0.928 | 0.913
PC-14 | 0.995 | 1.03 | 1.02 | 0.987 | 0.859
RERF-LC-KJ | 0.935 | 0.903 | 0.96 | 0.985 | 0.878
SK-LU-1 | 1.03 | 1.05 | 1.07 | 0.975 | 0.782
SK-MES-1 | 0.999 | 1.03 | 0.942 | 1 | 0.857
SW 900 | 0.9 | 0.994 | 1.09 | 0.744 | 0.668
SW 1573 | 1.03 | 0.989 | 0.888 | 0.913 | 0.757
UMC-11 | 0.974 | 0.872 | 1.03 | 0.926 | 0.824
